Assay results as given in PMC9569529, “Safe and Efficient Sigma1 Ligand: A Potential Drug Candidate for Multiple Sclerosis” (International Journal of Molecular Sciences, 2022).
Blank lines part the entries; values can stand above or below the compound they belong to.

What was measured:
S1R [1] = molecular target: T1, S1R (Homo sapiens, UniProt Q99720); assay: S1R binding assay, [3H](+)-pentazocine, Jurkat cell membranes
T1 construct: host or cells: Jurkat cell membranes
Experimental: The binding assays were performed by Eurofins Cerep (Poitiers, France) according to Ganapathy. Briefly, S1R)binding assay was carried out by incubating Jurkat cell membranes ([…] protein per tube) with [^3H] (+)-pentazocine (15 nM) and a range of concentrations of test compounds at 37 °C for 2 h in 5 mM Tris HCl buffer (pH = 7.4). The S2R binding assay was performed by incubating Jurkat cell membranes ([…] protein per tube) with [^3H]-DTG (25 nM) in the presence of (+)-pentazocine (1 mM), to saturate S1R, and a range of concentrations of test compounds at room temperature for 1 h in 5 mM Tris HCl buffer (pH = 7.4). Bound radioactivity was measured using liquid scintillation counting. Nonspecific binding was determined in both assays, under similar conditions, as remaining in the presence of […] unlabeled haloperidol. Inhibition constants (Ki) were calculated from the IC50 values according to the method of Cheng and Prusoff.

SH-SY5Y = assay: Cytotoxicity in human neuroblastoma cell line (MTT/MTS); type: cell-based; conditions: 72 h
Experimental: Toxicity analysis was performed in the human neuroblastoma cell line (SH-SY5Y), which was cultured in Dulbecco’s Modified Eagle Medium (DMEM, Gibco) supplemented with 2 mM L-glutamine (Invitrogen, Thermo Fisher Scientific Inc. Waltham, MA, USA), […] streptomycin (Invitrogen), 100 IU/mL penicillin (Invitrogen), 1 mM non-essential amino acids (Invitrogen) and 10% (v/v) heat inactivated fetal bovine serum (Sigma Aldrich, Burlington, MA, USA) and grown at 37 °C in a humidified incubator with 5% CO2. […] After 72 h of incubation, cell growth was estimated by the colorimetric MTT assay (CellTiter 96® aqueous one solution cell proliferation assay-MTS, Promega, Madison, WI, USA) according to the manufacturer’s protocol. Absorbance was read at 490 nm and results were expressed as % from the control condition considered as 100%.

HepG2 = assay: Cytotoxicity analysis in HepG2 cells; type: cell-based, human; conditions: % at 10 µM
Experimental: Cytotoxicity analysis was performed by Eurofins Cerep (Poitiers, France) according to [74]. Compound 7i was evaluated at 10 µM in the HepG2 cell line. Cell number, nuclear size, mitochondrial membrane potential, intracellular free calcium and membrane permeability were analyzed. % inhibition or % increase were calculated.

[2] = test system: dizocilpine-induced learning deficits; assay: Dizocilpine-induced learning deficits, Y-maze spontaneous alternation; type: in vivo, male Swiss mice
Experimental: The activity of compound 7i was evaluated in regard to its ability to reverse dizocilpine-induced learning deficits. Two behavioral tests were performed by Amylgen (Montferrier-sur-Lez, France) on male Swiss mice (aged 6–9 weeks). All compounds (7i and controls) were intraperitoneally injected.
Animals were tested for spontaneous alternation performance in the Y-maze, an index of spatial working memory. Made of grey polyvinylchloride, the Y-maze has an arm which is 40 cm long, 13 cm high and 3 cm wide at the bottom and 10 cm wide at the top, converging at an equal angle. Each mouse was placed at the end of one arm and allowed to move freely through the maze during an 8-min session. The series of arm entries, including possible returns into the same arm, were checked visually. An alternation was defined as entries into all three arms on consecutive occasions. The number of maximum alternations was therefore the total number of arm entries minus two, and the percentage of alternation was calculated as: (actual alternations/maximum alternations) × 100. Parameters included the percentage of alternation (memory index) and the total number of arm entries (exploration index). Animals showing extreme behavior (alternation < 20% or >90% or number of arm entries < 10) are usually discarded from the calculations. […] Step-through latency (the latency in time spent to enter the dark compartment) and the number of vocalizations were recorded. […] Step-through latency was recorded up to 300 s. When either the mouse entered the dark compartment or 300 s had elapsed (they were therefore manually placed in it), escape latency (latency to exit from the dark compartment) was recorded with a value of up to 300 s. […]

S1R [3] = molecular target: T1, S1R; design: method as in PMID 28756263; conditions: selectivity index; cited from earlier work

T1 sequence (Q99720 whole entry): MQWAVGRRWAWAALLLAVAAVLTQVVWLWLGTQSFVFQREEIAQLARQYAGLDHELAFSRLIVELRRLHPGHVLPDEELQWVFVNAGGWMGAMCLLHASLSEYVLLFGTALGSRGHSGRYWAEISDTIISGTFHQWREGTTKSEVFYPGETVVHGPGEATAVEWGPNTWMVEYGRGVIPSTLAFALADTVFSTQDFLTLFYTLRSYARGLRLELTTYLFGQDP

- Ki (S1R [1]): 23 nM
SMILES: O=C(NCCCNCc1ccccc1)c1ccc(Cl)cc1 [compound 7i-deMe]
- inhibition at 100 µM (SH-SY5Y): 77%

SMILES: CN(CCCNC(=O)c1ccc(Cl)cc1)Cc1ccccc1 [compound 7i]
- HepG2 Cell number (HepG2): −3%
- HepG2 Intracell free calcium (HepG2): 0%
- HepG2 Membrane permeability (HepG2): 0%
- HepG2 Mitochondrial membrane potential (HepG2): 5%
- HepG2 Nuclear size (HepG2): 9%
- dizocilpine-induced learning deficits, Y-maze spontaneous alternation ([2]; 0.5 mg/kg i.p., dizocilpine 0.15 mg/kg): significantly attenuated
- beneficial effect in Y-maze with NE-100 treatment ([2]; plus NE-100 at 3 mg/kg i.p.): prevented
- Ki Ratio S2R/S1R (S1R [3]): 60
